In general, IC50 refers to the point on the concentration scale where inhibition reaches its midpoint. Low values mean greater potency, high ones weaker potency.

This assay concerns the target DNA ligase A (Mycobacterium tuberculosis, UniProt P9WNV1). The assay can be described thus: Inhibition of Mycobacterium tuberculosis LigA.

Take `CC1(C)O[C@H]2OC([C@H](CCO)NCCCN[C@H](CCO)C3O[C@@H]4OC(C)(C)O[C@@H]4[C@H]3OCc3ccccc3)[C@H](OCc3ccccc3)[C@H]2O1` (some centres not stated): inhibition was half-maximal at 46.2 µM (IC50). Take `CCN(CC)CCCC(C)Nc1ccnc2c1C=CC(Cl)C2` (configuration not stated): the IC50 stood at 46 µM.

The values above are taken from ChEMBL document CHEMBL3046527, “NAD+-dependent DNA ligase (Rv3014c) from M. tuberculosis: Strategies for inhibitor design” (Med Chem Res, 2008).
